Laboratory results published in patent US20260199350A1, “FLAVONES, QUINOLINONES, QUINAZOLINONES, AND AURONES, AND USES IN CK2-MEDIATED DISEASES” (Salk Institute for Biological Studies, priority 2022, published 2026).
In brackets after ≈: the same amount, converted by molar mass. Like-named read-outs stand apart in the source and are kept apart here.

Key:
CK2A1 = target: T1, CK2A1 (Homo sapiens, UniProt P68400); experiment: Radiometric kinase assay (Eurofins), CK2A1; format: biochemical; details: read-out: CK2A1 RAD IC50
T1 construct: purchased Eurofins
Text: FIGS. 4A-4F characterize flavones for in vitro and in-cell CK2 inhibition. […] Representative of two independent experiments. […] Nonlinear fit was used to calculate IC50. […] Nonlinear fit was used to calculate IC50. […] Nonlinear fit was used to calculate IC50. […] Normalized to DMSO, data are representative of three independent experiments.
(§1) • ^1Radiometric kinase assay from Eurofins. Performed in astrocytes with a Promega Lumit IL-6 kit.

CK2A2 = target: T2, CK2A2 (Homo sapiens, UniProt P19784); experiment: Radiometric kinase assay (Eurofins), CK2A2; format: biochemical; details: read-out: CK2A2 RAD IC50
T2 construct: purchased Eurofins
Text: as §1

Aqueous solubility = format: physicochemical; details: read-out: Aqueous Solubility
IL-6 secretion = IL-6 secretion assay in astrocytes (Promega Lumit IL-6 kit); format: cell-based, human; details: Homo sapiens, Astrocyte, read-out: IL6-Inhib.
Method: IL-6 secretion assay. HCAs were plated at 20,000 cells per well in white clear bottom 96-well plates. Two to three days later, media was removed and replaced with media containing 10 ng/mL IL1B and compound dilution series. Five hours later, plates were processed using the Lumit IL-6 Assay Kit (Promega W6030) according to the manufacturer's instructions.
• ^1Radiometric kinase assay from Eurofins. Performed in astrocytes with a Promega Lumit IL-6 kit. A series of halogenated flavones was generated and assayed (Table 3).

[1] = aqueous (not further specified), Table 3
[2] = aqueous medium (not further specified), Table 8

T2 sequence (P19784 whole entry): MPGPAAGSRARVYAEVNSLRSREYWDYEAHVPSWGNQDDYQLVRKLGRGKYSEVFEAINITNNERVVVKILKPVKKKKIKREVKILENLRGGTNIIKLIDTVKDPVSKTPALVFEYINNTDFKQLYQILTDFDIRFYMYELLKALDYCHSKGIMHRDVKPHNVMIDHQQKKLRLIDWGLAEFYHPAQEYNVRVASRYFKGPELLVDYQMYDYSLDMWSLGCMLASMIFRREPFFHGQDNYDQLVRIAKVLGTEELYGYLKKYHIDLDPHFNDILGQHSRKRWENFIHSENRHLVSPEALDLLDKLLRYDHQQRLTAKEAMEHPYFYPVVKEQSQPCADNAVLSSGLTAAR
T1 sequence (P68400 whole entry): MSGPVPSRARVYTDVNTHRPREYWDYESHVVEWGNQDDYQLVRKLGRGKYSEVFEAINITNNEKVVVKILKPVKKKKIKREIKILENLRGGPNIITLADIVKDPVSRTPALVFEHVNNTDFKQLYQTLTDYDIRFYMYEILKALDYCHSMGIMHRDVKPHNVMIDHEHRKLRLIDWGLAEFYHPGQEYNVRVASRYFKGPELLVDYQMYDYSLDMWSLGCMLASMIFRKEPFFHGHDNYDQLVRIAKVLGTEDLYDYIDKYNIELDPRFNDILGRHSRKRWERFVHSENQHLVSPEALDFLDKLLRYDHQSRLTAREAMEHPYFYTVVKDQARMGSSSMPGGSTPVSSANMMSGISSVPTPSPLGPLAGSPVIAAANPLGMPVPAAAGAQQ

SMILES	IC50 (CK2A1; Table 3, halogenated flavones)	IC50 (CK2A2; Table 3, halogenated flavones)	solubility (Aqueous solubility; [1])	IC50 (IL-6 secretion; Table 3)	IC50 (CK2A1; Table 11, aurones)	IC50 (CK2A2; Table 11, aurones)	solubility (Aqueous solubility; Table 11)	IC50 (IL-6 secretion; Table 11)	further results
O=c1cc(-c2ccc(O)c(Cl)c2)oc2c(Cl)cc(Cl)cc12 [JKT.725A]	15 nM	12 nM	39.9 µM (≈ 13.6 µg/mL)	4800 nM	–	–	–	–	–
O=C1/C(=C/c2ccc(O)c(Cl)c2)Oc2c(Br)cc(Br)cc21 [JKT.726A]	–	–	–	–	44 nM	26 nM	7.8 µM (≈ 3.36 µg/mL)	3400 nM	–
O=C1/C(=C/c2ccc(O)cc2Cl)Oc2c(Br)cc(Br)cc21 [JKT.727A]	–	–	–	–	> 5000 nM	> 5000 nM	73.7 µM (≈ 31.7 µg/mL)	4700 nM	–
O=C1/C(=C/c2ccc(O)c(I)c2)Oc2c(Br)cc(Br)cc21 [JKT.728A]	–	–	–	–	81 nM	70 nM	17.7 µM (≈ 9.24 µg/mL)	1700 nM	–
O=c1[nH]c(-c2ccc(O)c(Br)c2)nc2c(Br)cc(Br)cc12 [JKT.734C]	–	–	–	–	–	–	–	–	IC50 (CK2A1; Table 8, quinazolinones): 24 nM; IC50 (CK2A2; Table 8, quinazolinones): 42 nM; solubility (Aqueous solubility; [2]): > 200 µM; IC50 (IL-6 secretion; Table 8): > 10000 nM
COc1cc(-c2cc(=O)c3cc(Br)cc(Br)c3[nH]2)ccc1O [JKT.736A]	–	–	–	–	–	–	–	–	IC50 (CK2A1; Table 6, quinolinones): 22 nM; IC50 (CK2A2; Table 6, quinolinones): 15 nM; solubility (Aqueous solubility; Table 6): 10 µM (≈ 4.25 µg/mL); IC50 (IL-6 secretion; Table 6): 3900 nM
COc1cc(-c2nc3c(Br)cc(Br)cc3c(=O)[nH]2)ccc1O [JKT.737B]	–	–	–	–	–	–	–	–	IC50 (CK2A1; Table 8, quinazolinones): 863 nM; IC50 (CK2A2; Table 8, quinazolinones): 2850 nM; IC50 (IL-6 secretion; Table 8): > 10000 nM
O=c1cc(-c2ccc(O)c(Br)c2)oc2c(Br)cccc12 [JKT.744B]	13 nM	17 nM	5 µM (≈ 1.98 µg/mL)	3700 nM	–	–	–	–	–
COc1c(Br)cc2c(=O)cc(-c3ccc(O)c(Br)c3)oc2c1Br [JKT.745A]	20 nM	11 nM	> 200 µM	3000 nM	–	–	–	–	–
COc1c(Br)cc2c(=O)cc(-c3ccc(O)c(Cl)c3)oc2c1Br [JKT.748A]	24 nM	9 nM	24.3 µM (≈ 11.2 µg/mL)	3900 nM	–	–	–	–	–
O=c1cc(-c2ccc(O)c(Cl)c2)oc2c(Br)cccc12 [JKT.749A]	11 nM	18 nM	36.5 µM (≈ 12.8 µg/mL)	4800 nM	–	–	–	–	–
COc1c(Br)cc2c(=O)cc(-c3ccc(O)c(C(F)(F)F)c3)oc2c1Br [JKT.750A]	580 nM	466 nM	124 µM (≈ 61.5 µg/mL)	2200 nM	–	–	–	–	–
O=c1cc(-c2ccc(O)c(C(F)(F)F)c2)oc2c(Br)cccc12 [JKT.751A]	635 nM	637 nM	4 µM (≈ 1.54 µg/mL)	5000 nM	–	–	–	–	–
COc1c(Br)cc2c(=O)cc(-c3cc(F)c(O)c(F)c3)oc2c1Br [JKT.753A]	> 5000 nM	1850 nM	109 µM (≈ 50.5 µg/mL)	> 10000 nM	–	–	–	–	–
O=C1/C(=C/c2ccc(O)cc2Br)Oc2c(Br)cc(Br)cc21 [JKT.758A]	–	–	–	–	> 5000 nM	> 5000 nM	2.7 µM (≈ 1.28 µg/mL)	3000 nM	–
COc1c(Br)cc2c(c1Br)O/C(=C\c1ccc(O)c(Br)c1)C2=O [JKT.759A]	–	–	–	–	57 nM	44 nM	3.6 µM (≈ 1.82 µg/mL)	2300 nM	–
COc1c(Br)cc2c(c1Br)O/C(=C\c1ccc(O)cc1Br)C2=O [JKT.760A]	–	–	–	–	> 5000 nM	> 5000 nM	184 µM (≈ 92.7 µg/mL)	9400 nM	–
COc1c(Br)cc2c(c1Br)O/C(=C\c1ccc(O)c(Cl)c1)C2=O [JKT.761A]	–	–	–	–	67 nM	48 nM	120 µM (≈ 55.2 µg/mL)	2500 nM	–
COc1c(Br)cc2c(c1Br)O/C(=C\c1ccc(O)cc1Cl)C2=O [JKT.762A]	–	–	–	–	> 5000 nM	> 5000 nM	58.6 µM (≈ 27 µg/mL)	4400 nM	–
COc1c(Br)cc2c(c1Br)O/C(=C\c1ccc(O)c(C(F)(F)F)c1)C2=O [JKT.763A]	–	–	–	–	598 nM	627 nM	7.9 µM (≈ 3.9 µg/mL)	2700 nM	–
COc1cc(/C=C2\Oc3c(cc(Br)c(OC)c3Br)C2=O)ccc1O [JKT.764A]	–	–	–	–	521 nM	383 nM	< 0.01 µM	12000 nM	–
COc1c(Br)cc2c(c1Br)O/C(=C\c1ccc(C(=O)O)cc1)C2=O [JKT.765A]	–	–	–	–	2460 nM	199 nM	> 200 µM	15000 nM	–
O=c1[nH]c(-c2ccc(O)c(Cl)c2)nc2c(Br)cc(Br)cc12 [JKT.772A]	–	–	–	–	–	–	–	–	IC50 (CK2A1; Table 8, quinazolinones): 23 nM; IC50 (CK2A2; Table 8, quinazolinones): 72 nM; solubility (Aqueous solubility; [2]): < 0.01 µM; IC50 (IL-6 secretion; Table 8): 11000 nM
COc1nc(-c2nc3c(Br)nc(Br)cc3c(=O)[nH]2)ccc1O [JKT.976B]	–	–	–	–	–	–	–	–	IC50 (CK2A1; Table 8, quinazolinones): 234 nM; IC50 (CK2A2; Table 8, quinazolinones): 495 nM; IC50 (IL-6 secretion; Table 8): > 10000 nM
